Test results published in BindingDB's records for PubMed 10565848 (Washington State University, 1999).
Where “and” joins values, the source holds several entries; their conditions need not be identical. Identical values can stand only once. Where a SMILES comes first, the peptide text is derived from it. [ ]: non-standard residue; d: D form. GABA = NCCCC(=O)O

The molecules below were run against Angiotensin-converting enzyme 2 (Bos taurus, UniProt Q58DD0).
Chain of Angiotensin-converting enzyme 2 (Q58DD0 whole entry): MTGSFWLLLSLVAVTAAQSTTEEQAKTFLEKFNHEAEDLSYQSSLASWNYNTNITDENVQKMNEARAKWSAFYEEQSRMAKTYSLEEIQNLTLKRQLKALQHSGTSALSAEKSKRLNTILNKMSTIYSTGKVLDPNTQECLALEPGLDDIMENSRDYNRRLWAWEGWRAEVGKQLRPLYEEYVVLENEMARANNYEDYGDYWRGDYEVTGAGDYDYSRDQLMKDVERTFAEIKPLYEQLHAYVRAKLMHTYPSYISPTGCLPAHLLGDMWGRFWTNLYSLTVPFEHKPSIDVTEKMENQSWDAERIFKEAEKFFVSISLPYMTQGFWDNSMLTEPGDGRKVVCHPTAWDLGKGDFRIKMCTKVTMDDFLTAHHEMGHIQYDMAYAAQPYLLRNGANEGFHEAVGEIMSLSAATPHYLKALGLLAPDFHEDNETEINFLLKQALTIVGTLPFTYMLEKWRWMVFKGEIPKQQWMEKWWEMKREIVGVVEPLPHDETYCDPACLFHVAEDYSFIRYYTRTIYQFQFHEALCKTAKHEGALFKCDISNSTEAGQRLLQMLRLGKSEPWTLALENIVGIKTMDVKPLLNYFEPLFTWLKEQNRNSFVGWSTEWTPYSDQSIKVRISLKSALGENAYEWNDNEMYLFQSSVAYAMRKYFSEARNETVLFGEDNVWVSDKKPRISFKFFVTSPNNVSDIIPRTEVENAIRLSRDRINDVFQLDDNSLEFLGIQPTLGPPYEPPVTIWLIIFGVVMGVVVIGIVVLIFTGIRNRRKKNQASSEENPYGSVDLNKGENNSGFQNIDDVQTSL

`CCCC[C@H](N)C(=O)N[C@H](Cc1ccccc1)C(=O)NCCCCCC(N)=O` [NleYI-6-hexamide] and `CC[C@H](C)[C@H](NC(=O)[C@H](Cc1ccc(O)cc1)NC(=O)[C@@H](N)C(C)C)C(=O)O` [Ang(3-5)] (H-Val-Tyr-Ile-OH) are within 1.5-fold of each other in Ki: 0.0137 µM for the first, 0.00991 µM for the second.

Going from `CC(C)[C@H](N)C(=O)N[C@@H](Cc1ccc(O)cc1)C(=O)O` [Ang(3-4)] (H-Val-Tyr-OH) to `CC[C@H](C)[C@H](NC(=O)[C@H](Cc1ccc(O)cc1)NC(=O)[C@@H](N)C(C)C)C(=O)N[C@@H](Cc1cnc[nH]1)C(=O)O` [Ang(3-6)] (H-VYIH-OH), the Ki falls from 1 µM to 0.0144 µM (69-fold).

Compared with `CC[C@H](C)[C@H](NC(=O)[C@H](Cc1ccc(O)cc1)NC(=O)[C@@H](NC(=O)[C@@H](N)CCCN=C(N)N)C(C)C)C(=O)N[C@@H](Cc1cnc[nH]1)C(=O)N1CCC[C@H]1C(=O)O` [Ang(2-7)], `CC[C@H](C)[C@H](NC(=O)[C@H](Cc1ccc(O)cc1)NC(=O)[C@@H](N)C(C)C)C(=O)N[C@@H](Cc1cnc[nH]1)C(=O)N1CCC[C@H]1C(=O)O` [Ang(3-7)] (H-VYIHP-OH) is 3.2-fold lower in Ki: 0.0335 µM for the first, 0.0105 µM for the second. The second binds more tightly here.

Compared with `CC[C@H](C)[C@H](NC(=O)[C@H](Cc1ccc(O)cc1)NC(=O)[C@@H](N)C(C)C)C(=O)N[C@@H](Cc1c[nH]cn1)C(=O)N1CCC[C@H]1C(=O)N[C@@H](Cc1ccccc1)C(=O)N[C@@H](Cc1c[nH]cn1)C(=O)O` [Ang(3-9)] (H-VYIHPFH-OH), `CC[C@H](C)[C@H](NC(=O)[C@H](Cc1ccc(O)cc1)NC(=O)[C@@H](N)C(C)C)C(=O)N[C@@H](Cc1c[nH]cn1)C(=O)N1CCC[C@H]1C(=O)N[C@@H](Cc1ccccc1)C(=O)N[C@@H](Cc1c[nH]cn1)C(=O)N[C@@H](CC(C)C)C(=O)O` [Ang(3-10)] (H-VYIHPFHL-OH) is 2.6-fold higher in Ki: 0.00717 µM for the first, 0.0188 µM for the second.

`CCC(C)[C@H](NC(=O)[C@@H]1CCCN1C(=O)[C@H](Cc1cnc[nH]1)NC(=O)[C@@H](NC(=O)[C@H](Cc1ccc(O)cc1)NC(=O)[C@@H](NC(=O)[C@H](CCCN=C(N)N)NC(=O)CNC)C(C)C)[C@@H](C)CC)C(=O)O` (stereo partly specified) [Ang II Ile8, Sar1] and `CC[C@H](C)[C@H](NC(=O)[C@H](Cc1ccc(O)cc1)NC(=O)[C@@H](NC(=O)[C@H](CCCN=C(N)N)NC(=O)CNC)C(C)C)C(=O)N[C@@H](Cc1cnc[nH]1)C(=O)N1CCC[C@H]1C(=O)N[C@H](C(=O)O)C(C)O` (stereo partly specified) [Ang II Thr8, Sar1] are the same in Ki: 1 µM for the first, 1 µM for the second.

`CC[C@H](C)[C@H](NC(=O)[C@@H](N)Cc1ccc(O)cc1)C(=O)N[C@@H](Cc1cnc[nH]1)C(=O)N1CCC[C@H]1C(=O)N[C@@H](Cc1ccccc1)C(=O)O` [Ang(4-8)] (H-YIHPF-OH) and `CC[C@H](C)[C@H](NC(=O)[C@H](Cc1ccc(O)cc1)NC(=O)[C@H](N)C(C)C)C(=O)N[C@@H](Cc1cnc[nH]1)C(=O)N1CCC[C@H]1C(=O)N[C@@H](Cc1ccccc1)C(=O)O` [Ang IV D-Val1] are the same in Ki: 1 µM for the first, 1 µM for the second.

`CC[C@H](C)[C@H](NC(=O)[C@H](Cc1ccc(O)cc1)NC(=O)[C@@H](NC(=O)[C@H](CCCNC(=N)N)NC(=O)[C@@H](N)CC(=O)O)C(C)C)C(=O)N[C@@H](Cc1cnc[nH]1)C(=O)N[C@H](C)C(=O)O` [Ang(1-7) D-Ala7] (H-DRVYIH[dA]-OH) and `CC[C@H](C)[C@H](NC(=O)[C@H](Cc1ccc(O)cc1)NC(=O)[C@@H](NC(=O)[C@H](CCCNC(=N)N)NC(=O)[C@@H](N)CC(=O)O)C(C)C)C(=O)N[C@@H](Cc1c[nH]cn1)C(=O)N1CCC[C@H]1C(=O)O` [Ang(1-7)] are the same in Ki: 1 µM for the first, 1 µM for the second.

Compared with `CC[C@H](C)[C@H](NC(=O)[C@H](Cc1ccc(O)cc1)NC(=O)[C@@H](N)C(C)C)C(=O)N[C@@H](Cc1cnc[nH]1)C(=O)N1CCC[C@H]1C(=O)N[C@@H](Cc1ccccc1)C(=O)N[C@@H](Cc1cnc[nH]1)C(=O)N[C@@H](CC(C)C)C(=O)N[C@H](C(=O)O)C(C)C` [Ang(3-11)] (H-VYIHPFHLV-OH), `Cc1cc(Cn2cnc3c2C[C@@H](C(=O)O)N(C(=O)C(c2ccccc2)c2ccccc2)C3)ccc1N` is higher in Ki: 0.117 µM for the first, > 10 µM for the second. The first binds more tightly here.

For `CCCCc1nc(Cl)c(CO)n1Cc1ccc(-c2ccccc2-c2nn[nH]n2)cc1` [NSC_3961], the Ki was > 10 µM.

With `CC[C@H](C)[C@H](NC(=O)[C@H](Cc1ccc(O)cc1)NC(=O)[C@@H](N)C(C)C)C(=O)N[C@@H](Cc1cnc[nH]1)C(=O)N1CCC[C@H]1C(=O)N[C@@H](Cc1ccccc1)C(=O)O` the Ki was 0.00554 µM and 0.00358 µM.
In the case of `CC[C@H](C)[C@H](NC(=O)[C@H](Cc1ccc(O)cc1)NC(=O)[C@@H](NC(=O)[C@@H](N)CCCN=C(N)N)C(C)C)C(=O)N[C@@H](Cc1c[nH]cn1)C(=O)N1CCC[C@H]1C(=O)N[C@@H](Cc1ccccc1)C(=O)O` [CAS_12687-51-3], the Ki is reported as 0.0632 µM and 0.0368 µM.
`CC[C@H](C)[C@H](NC(=O)[C@H](Cc1ccc(O)cc1)NC(=O)[C@@H](NC(=O)[C@H](CCCNC(=N)N)NC(=O)[C@@H](N)CC(=O)O)C(C)C)C(=O)N[C@@H](Cc1cnc[nH]1)C(=O)N1CCC[C@H]1C(=O)N[C@@H](Cc1ccccc1)C(=O)O` [NSC_439662] was tested, and the Ki was 0.411 µM and 0.581 µM.
`CC[C@H](C)[C@H](NC(=O)[C@H](Cc1ccc(O)cc1)NC(=O)CCCN)C(=O)N[C@@H](Cc1cnc[nH]1)C(=O)N1CCC[C@H]1C(=O)N[C@@H](Cc1ccccc1)C(=O)O` [Ang IV Nor1] (H-[GABA]YIHPF-OH) was tested, and the Ki was 0.00849 µM and 0.00325 µM.
